For assay [1], the target named is KDR (phospho-KDR, VEGF165-stimulated HUVEC cells) (Homo sapiens (Human), UniProt P35968). As to the kind of experiment: KDR autophosphorylation ELISA in HUVEC cells (Example G). The following applies: cellular activity; KDR autophosphorylation ELISA in HUVEC cells. The class given is cell-based. The essentials:
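Cells seeded, grown 24 h at 37 °C, starved 24 h serum-free; cpd 8-pt curve, 0.3% DMSO, 1 h; VEGF165 100 ng/mL, 5 min; cold PBS wash, lysis with orthovanadate and protease/phosphatase inhibitors; pKDR ELISA; IC50 by 4-parameter logistic regression.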

Assay [2] concerns the target Human MER (residues 528-999) (Homo sapiens (Human), UniProt Q12866). In words: Human Mer kinase assay, HTRF KinEase (Example C-2). The class given is biochemical. The following applies: protocol of Example C-2 (other compounds). As for the experimental part: (§1) Kinase activity and compound inhibition were also investigated using the HTRF® KinEase assay (Cisbio Cat #62TKOPEB) per manufacturer's instructions. In short, compounds were delivered in 300 nL volumes at 10 different concentrations in DMSO (3% final) to empty 384-well assay plates (Corning cat #3824). A mixture of enzyme, […] biotynlated peptide substrate, and buffer in 10 μL volume was added. The assay was started upon the addition of ATP (at Km). The 10 μL reaction was incubated at room temperature. The reaction was stopped upon the addition of detection buffer containing streptavidin-XL665 ([…]) and TK antibody-Eu3+([…]). After a 60 min incubation at room temperature, the fluorescence at 665 nm and 620 nm was read on an Envision microplate reader (Perkin Elmer).
(§2) Kinase activity normalized to DMSO (100% activity) and reference compound at […] and (0% activity) was calculated using the fluorescence ratio […]. IC50 values were calculated by nonlinear regression analysis using a 4-parameter logistic curve fit in ActivityBase XE (IDBS).
Example C-2: Human MER (residues 528-999; CarnaBio, 1 ng/well) was also incubated with enzymatic buffer (Cisbio) supplemented with 5 mM MgCl2 and 1 mM DTT. The mixture was added to the pre-plated compounds. The reaction was initiated upon addition of ATP at Km (40 μM). The reaction was incubated at room temperature for 60 min and stopped upon the addition of SA-XL665 and TK-antibody both diluted in EDTA-containing kinase detection buffer (Cisbio). The kinase activity was calculated as stated above and the IC50 values were reported.
A general note: TR-FRET usually uses a lanthanide donor and a delayed reading to cut background.

Assay [3] addresses Human KDR (residues 790-1356) (Homo sapiens (Human), UniProt P35968). As to the kind of experiment: Human KDR kinase assay, HTRF KinEase (Example B-2). The class given is biochemical. Conditions: protocol of Example B-2 (other compounds). As to the method: as §1, §2
Example B-2: Human KDR (residues 790-1356; CarnaBio, 0.1 ng/well) was also incubated with enzymatic buffer (Cisbio) supplemented with 5 mM MgCl2, 1 mM MnCl2, and 1 mM DTT. The mixture was added to the pre-plated compounds. The reaction was initiated upon addition of ATP at Km (4.0 μM). The reaction was incubated at room temperature for 40 min and stopped upon the addition of SA-XL665 and TK-antibody both diluted in EDTA-containing kinase detection buffer (Cisbio). The kinase activity was calculated as stated above and the IC50 values were reported.

The target in assay [4] is Met (phospho-Met, HGF-stimulated PC-3 prostate cancer cells) (Homo sapiens (Human), UniProt P08581). As to the kind of experiment: Met autophosphorylation ELISA in PC-3 cells (Example F). The class given is cell-based. The following applies: cellular activity; Met autophosphorylation ELISA in PC-3 cells; read-out: c-Met IC50. The essentials:
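Sandwich ELISA for phospho-Met (panTyr) in PC-3 lysates. Cells starved 3 h serum-free, compound 1 h (8-pt curve, 0.3% DMSO), HGF 100 ng/mL 10 min. 100% = HGF + DMSO; 0% = HGF + reference inhibitor. IC50 by 4-parameter fit.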
(In general: In an ELISA, binding on a coated surface is turned into a signal by an enzyme label.)

Assay [5] deals with Mer (phospho-Mer, MERTK-transfected 293A cells) (Homo sapiens (Human), UniProt Q12866). As to the kind of experiment: Mer autophosphorylation ELISA in transient transfected 293A cells (Example H). The following applies: cellular activity; Mer autophosphorylation ELISA in transient transfected 293A cells. The class given is cell-based. The essentials: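 Human MERTK transiently transfected into 293A cells; compounds as 8-point dose curve in serum-free medium (0.3% DMSO final), 1 h. Lysates assayed by phospho-Mer sandwich ELISA against phospho-Mer standard; DMSO = 100%, reference inhibitor = 0% activity; IC50 from 4-parameter logistic fit.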

Structures are written as SMILES. pIC50: −log10 of the molar value. Bounds are passed on as bounds.

Human MER (residues 528-999), sequence (Q12866 528-999): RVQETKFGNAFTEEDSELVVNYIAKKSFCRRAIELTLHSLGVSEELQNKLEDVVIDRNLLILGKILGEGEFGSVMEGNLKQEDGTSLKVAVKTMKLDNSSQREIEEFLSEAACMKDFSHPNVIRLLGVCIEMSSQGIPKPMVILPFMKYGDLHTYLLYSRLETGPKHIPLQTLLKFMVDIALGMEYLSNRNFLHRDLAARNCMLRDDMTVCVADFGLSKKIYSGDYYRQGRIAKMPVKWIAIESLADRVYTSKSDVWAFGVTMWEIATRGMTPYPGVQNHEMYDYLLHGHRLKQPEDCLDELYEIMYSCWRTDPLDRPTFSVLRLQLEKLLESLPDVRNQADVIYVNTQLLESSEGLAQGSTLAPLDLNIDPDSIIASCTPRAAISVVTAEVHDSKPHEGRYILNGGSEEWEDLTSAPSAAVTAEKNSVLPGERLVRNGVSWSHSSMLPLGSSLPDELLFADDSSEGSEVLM
KDR (phospho-KDR, VEGF165-stimulated HUVEC cells), sequence (P35968 20-1356): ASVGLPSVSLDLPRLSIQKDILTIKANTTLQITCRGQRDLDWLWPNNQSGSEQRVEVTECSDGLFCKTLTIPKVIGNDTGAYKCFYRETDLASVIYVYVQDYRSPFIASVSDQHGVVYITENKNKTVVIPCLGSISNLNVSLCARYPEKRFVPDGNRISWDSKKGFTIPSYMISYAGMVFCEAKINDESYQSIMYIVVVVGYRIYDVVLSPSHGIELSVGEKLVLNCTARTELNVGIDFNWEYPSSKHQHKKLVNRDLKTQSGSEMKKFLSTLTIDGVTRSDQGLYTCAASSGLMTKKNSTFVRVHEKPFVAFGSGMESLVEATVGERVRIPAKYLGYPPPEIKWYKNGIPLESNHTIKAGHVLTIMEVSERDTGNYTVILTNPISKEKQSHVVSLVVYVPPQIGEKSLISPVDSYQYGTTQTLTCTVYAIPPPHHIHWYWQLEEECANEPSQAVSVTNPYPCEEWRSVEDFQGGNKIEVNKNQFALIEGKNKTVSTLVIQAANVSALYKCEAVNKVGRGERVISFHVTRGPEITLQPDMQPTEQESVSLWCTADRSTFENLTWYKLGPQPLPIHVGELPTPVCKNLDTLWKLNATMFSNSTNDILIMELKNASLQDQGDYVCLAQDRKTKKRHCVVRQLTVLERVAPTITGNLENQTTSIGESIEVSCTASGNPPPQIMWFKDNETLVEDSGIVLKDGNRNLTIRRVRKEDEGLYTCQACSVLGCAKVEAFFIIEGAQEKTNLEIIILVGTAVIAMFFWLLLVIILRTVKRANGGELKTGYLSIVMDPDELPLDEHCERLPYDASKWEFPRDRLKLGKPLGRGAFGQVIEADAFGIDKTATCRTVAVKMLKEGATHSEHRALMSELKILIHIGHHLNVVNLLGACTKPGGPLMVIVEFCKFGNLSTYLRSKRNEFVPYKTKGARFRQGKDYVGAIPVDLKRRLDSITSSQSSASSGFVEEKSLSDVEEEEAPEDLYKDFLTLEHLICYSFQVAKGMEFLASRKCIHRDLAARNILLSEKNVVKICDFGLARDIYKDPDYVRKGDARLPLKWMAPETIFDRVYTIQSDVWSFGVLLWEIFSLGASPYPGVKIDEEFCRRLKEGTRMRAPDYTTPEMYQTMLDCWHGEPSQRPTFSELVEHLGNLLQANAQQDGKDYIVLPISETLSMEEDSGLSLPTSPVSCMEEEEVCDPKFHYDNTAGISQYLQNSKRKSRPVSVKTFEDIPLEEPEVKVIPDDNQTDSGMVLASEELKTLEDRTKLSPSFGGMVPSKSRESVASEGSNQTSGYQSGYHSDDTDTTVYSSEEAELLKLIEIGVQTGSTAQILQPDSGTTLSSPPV
Met (phospho-Met, HGF-stimulated PC-3 prostate cancer cells), sequence (P08581 25-1390): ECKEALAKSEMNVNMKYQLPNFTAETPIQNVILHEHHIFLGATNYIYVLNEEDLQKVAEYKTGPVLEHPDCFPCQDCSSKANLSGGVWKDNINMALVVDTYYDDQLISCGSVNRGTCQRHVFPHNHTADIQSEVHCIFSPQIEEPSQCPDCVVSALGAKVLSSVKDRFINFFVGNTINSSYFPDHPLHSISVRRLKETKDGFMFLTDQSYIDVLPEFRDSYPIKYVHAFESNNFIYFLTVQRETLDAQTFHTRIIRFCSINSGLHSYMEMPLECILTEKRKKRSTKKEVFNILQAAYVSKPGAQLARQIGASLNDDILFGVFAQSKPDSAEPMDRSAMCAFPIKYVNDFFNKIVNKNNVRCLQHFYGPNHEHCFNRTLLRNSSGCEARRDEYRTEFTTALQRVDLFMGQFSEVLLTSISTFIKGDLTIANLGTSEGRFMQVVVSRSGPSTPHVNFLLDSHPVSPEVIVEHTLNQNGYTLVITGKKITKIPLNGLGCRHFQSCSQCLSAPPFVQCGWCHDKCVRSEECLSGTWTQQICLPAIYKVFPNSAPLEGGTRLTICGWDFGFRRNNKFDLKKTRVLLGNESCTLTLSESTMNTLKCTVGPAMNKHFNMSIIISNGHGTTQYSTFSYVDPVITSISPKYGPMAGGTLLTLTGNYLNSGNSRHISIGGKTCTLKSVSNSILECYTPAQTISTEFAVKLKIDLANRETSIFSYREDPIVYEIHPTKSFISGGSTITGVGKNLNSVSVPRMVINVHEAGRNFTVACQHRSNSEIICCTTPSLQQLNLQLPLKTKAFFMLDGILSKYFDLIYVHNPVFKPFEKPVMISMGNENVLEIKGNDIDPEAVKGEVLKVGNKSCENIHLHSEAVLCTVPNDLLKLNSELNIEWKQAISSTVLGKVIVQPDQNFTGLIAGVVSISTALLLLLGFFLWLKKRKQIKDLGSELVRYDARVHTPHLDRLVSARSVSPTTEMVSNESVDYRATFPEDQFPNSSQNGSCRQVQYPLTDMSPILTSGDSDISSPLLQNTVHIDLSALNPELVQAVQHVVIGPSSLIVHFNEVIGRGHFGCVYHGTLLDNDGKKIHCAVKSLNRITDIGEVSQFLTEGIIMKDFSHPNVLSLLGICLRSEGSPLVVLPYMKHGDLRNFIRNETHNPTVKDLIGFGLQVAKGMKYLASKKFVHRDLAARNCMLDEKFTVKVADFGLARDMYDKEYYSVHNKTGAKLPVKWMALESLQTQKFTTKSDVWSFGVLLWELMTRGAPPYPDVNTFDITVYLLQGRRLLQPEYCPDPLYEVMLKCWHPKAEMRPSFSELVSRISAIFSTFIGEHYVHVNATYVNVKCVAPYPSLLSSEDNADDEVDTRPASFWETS
Mer (phospho-Mer, MERTK-transfected 293A cells), sequence (Q12866 21-999): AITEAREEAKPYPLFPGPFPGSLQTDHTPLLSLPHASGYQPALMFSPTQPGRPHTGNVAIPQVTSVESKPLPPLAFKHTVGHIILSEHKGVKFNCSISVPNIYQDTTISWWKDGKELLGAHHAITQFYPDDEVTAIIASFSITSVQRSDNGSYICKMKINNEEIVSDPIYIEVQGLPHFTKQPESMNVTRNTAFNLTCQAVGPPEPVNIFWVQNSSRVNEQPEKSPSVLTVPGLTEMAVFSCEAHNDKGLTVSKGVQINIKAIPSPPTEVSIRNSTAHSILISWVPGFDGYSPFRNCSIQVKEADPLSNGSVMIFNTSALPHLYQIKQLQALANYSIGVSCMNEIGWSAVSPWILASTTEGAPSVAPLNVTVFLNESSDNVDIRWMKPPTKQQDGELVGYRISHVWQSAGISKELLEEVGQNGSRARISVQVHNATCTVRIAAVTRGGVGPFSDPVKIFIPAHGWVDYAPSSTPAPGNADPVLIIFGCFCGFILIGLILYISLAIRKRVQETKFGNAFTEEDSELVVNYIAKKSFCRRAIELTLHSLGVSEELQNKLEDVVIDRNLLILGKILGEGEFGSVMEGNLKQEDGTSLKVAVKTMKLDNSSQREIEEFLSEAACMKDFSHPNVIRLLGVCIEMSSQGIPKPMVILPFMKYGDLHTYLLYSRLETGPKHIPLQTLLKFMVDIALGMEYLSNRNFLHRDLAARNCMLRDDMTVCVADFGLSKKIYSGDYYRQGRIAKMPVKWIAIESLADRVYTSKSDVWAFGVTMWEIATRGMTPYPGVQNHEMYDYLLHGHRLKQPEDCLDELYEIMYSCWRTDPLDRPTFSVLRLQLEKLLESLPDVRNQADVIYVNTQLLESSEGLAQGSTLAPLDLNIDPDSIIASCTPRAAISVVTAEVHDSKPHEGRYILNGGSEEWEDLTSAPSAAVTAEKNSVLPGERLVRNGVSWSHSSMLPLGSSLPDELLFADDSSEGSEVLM
Human KDR (residues 790-1356), sequence (P35968 790-1356): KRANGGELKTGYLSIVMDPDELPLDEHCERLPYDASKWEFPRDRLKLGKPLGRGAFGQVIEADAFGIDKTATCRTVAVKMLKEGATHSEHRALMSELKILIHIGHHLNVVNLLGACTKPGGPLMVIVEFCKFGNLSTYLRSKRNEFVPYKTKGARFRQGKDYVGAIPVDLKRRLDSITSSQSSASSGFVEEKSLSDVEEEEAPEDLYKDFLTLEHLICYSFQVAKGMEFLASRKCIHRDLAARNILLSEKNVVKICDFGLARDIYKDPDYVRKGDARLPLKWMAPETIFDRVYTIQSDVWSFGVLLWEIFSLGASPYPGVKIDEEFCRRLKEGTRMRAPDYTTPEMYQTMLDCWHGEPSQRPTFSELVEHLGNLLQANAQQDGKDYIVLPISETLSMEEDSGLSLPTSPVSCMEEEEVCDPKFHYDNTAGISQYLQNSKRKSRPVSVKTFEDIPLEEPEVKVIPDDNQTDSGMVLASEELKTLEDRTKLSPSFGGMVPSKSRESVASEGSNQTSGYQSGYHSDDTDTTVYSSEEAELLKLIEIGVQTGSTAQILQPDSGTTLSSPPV

The pIC50 is the IC50 on a negative log10 scale, so that one unit is a factor of ten. With `COc1cc2nccc(Oc3ccc(NC(=O)c4cnc(C)n(-c5ccc(F)cc5)c4=O)cc3)c2nc1OC` [Compound 267, N-[4-[(6,7-Dimethoxy-1,5-naphthyridin-4-yl)oxy]phenyl]-1-(4-fluorophenyl)-2-methyl-6-oxopyrimidine-5-carboxamide], the pIC50 is less than 6.52 in assay [1], less than 6.52 in assay [2], less than 6.52 in assay [3] and greater than 7.00 in assay [4].
Turning to `Cc1ccc(C(=O)Nc2ccc(Oc3ccnc4cccnc34)c(F)c2)c(=O)n1-c1ccc(F)cc1` [Compound 302, N-[3-Fluoro-4-(1,5-naphthyridin-4-yloxy)phenyl]-1-(4-fluorophenyl)-6-methyl-2-oxopyridine-3-carboxamide], the pIC50 was greater than 7.00 in assay [5]; 6.52 to 7.00 in assay [1]; greater than 7.00 in assay [2]; less than 6.52 in assay [3]; greater than 7.00 in assay [4].
Take `Cc1ccn(-c2ccc(F)cc2)c(=O)c1C(=O)Nc1ccc(Oc2ccnc3cccnc23)c(F)c1` [Compound 303, N-[3-Fluoro-4-(1,5-naphthyridin-4-yloxy)phenyl]-1-(4-fluorophenyl)-4-methyl-2-oxopyridine-3-carboxamide]: the pIC50 in assay [5] is greater than 7.00; in assay [1], less than 6.52; in assay [2], 6.52 to 7.00; in assay [3], less than 6.52; in assay [4], greater than 7.00.
With `O=C(Nc1ccc(Oc2ccnc3cccnc23)c(F)c1)c1cccn(-c2ccc(F)cc2)c1=O` [Compound 304, N-[3-Fluoro-4-(1,5-naphthyridin-4-yloxy)phenyl]-1-(4-fluorophenyl)-2-oxopyridine-3-carboxamide], the pIC50 is greater than 7.00 in assay [5]; 6.52 to 7.00 in assay [1]; greater than 7.00 in assay [2]; less than 6.52 in assay [3]; greater than 7.00 in assay [4].
`COc1cc2nccc(Oc3ccc(NC(=O)c4c(C)c(Br)c(C)n(-c5ccc(F)cc5)c4=O)cc3F)c2nc1OC` [Compound 305, 5-Bromo-N-[4-[(6,7-dimethoxy-1,5-naphthyridin-4-yl)oxy]-3-fluorophenyl]-1-(4-fluorophenyl)-4,6-dimethyl-2-oxopyridine-3-carboxamide]: the pIC50 in assay [5] is greater than 7.00; in assay [1] it was 6.52 to 7.00; in assay [2], greater than 7.00; in assay [3], less than 6.52; in assay [4], greater than 7.00.
In the case of `COc1cc2nccc(Oc3ccc(NC(=O)c4c(C)c(C)c(C)n(-c5ccc(F)cc5)c4=O)cc3F)c2nc1OC` [Compound 306, N-[4-[(6,7-Dimethoxy-1,5-naphthyridin-4-yl)oxy]-3-fluorophenyl]-1-(4-fluorophenyl)-4,5,6-trimethyl-2-oxopyridine-3-carboxamide], the negative-log IC50 (pIC50) in assay [5] was greater than 7.00; in assay [1], 6.52 to 7.00; in assay [2], greater than 7.00; in assay [3], less than 6.52; in assay [4] it was greater than 7.00.
Turning to `COc1cc2nccc(Oc3ccc(NC(=O)c4c(C)c(Cl)c(C)n(-c5ccc(F)cc5)c4=O)cc3)c2nc1OC` [Compound 307, 5-Chloro-N-[4-[(6,7-dimethoxy-1,5-naphthyridin-4-yl)oxy]phenyl]-1-(4-fluorophenyl)-4,6-dimethyl-2-oxopyridine-3-carboxamide], the pIC50 in assay [5] was greater than 7.00; in assay [1], less than 6.52; in assay [2], greater than 7.00; in assay [3], less than 6.52; in assay [4], greater than 7.00.
With `COc1cc2nccc(Oc3ccc(NC(=O)c4c(C)c(Cl)c(C)n(-c5ccc(F)cc5)c4=O)cc3F)c2nc1OC` [Compound 308, 5-Chloro-N-[4-[(6,7-dimethoxy-1,5-naphthyridin-4-yl)oxy]-3-fluorophenyl]-1-(4-fluorophenyl)-4,6-dimethyl-2-oxopyridine-3-carboxamide], the pIC50 in assay [5] was greater than 7.00; in assay [1], greater than 7.00; in assay [2] it was greater than 7.00; in assay [3], less than 6.52; in assay [4], greater than 7.00.
In the case of `COc1cnc2c(Oc3ccc(NC(=O)c4c(C)c(Cl)c(C)n(-c5ccc(F)cc5)c4=O)cc3F)ccnc2c1` [Compound 309, 5-Chloro-N-[3-fluoro-4-[(7-methoxy-1,5-naphthyridin-4-yl)oxy]phenyl]-1-(4-fluorophenyl)-4,6-dimethyl-2-oxopyridine-3-carboxamide], the pIC50 in assay [5] is greater than 7.00; in assay [1], less than 6.52; in assay [2], greater than 7.00; in assay [3], less than 6.52; in assay [4], greater than 7.00.
For the compound `COc1cnc2c(Oc3ccc(NC(=O)c4c(C)c(Cl)c(C)n(-c5ccc(F)cc5)c4=O)cc3)ccnc2c1` [Compound 310, 5-Chloro-1-(4-fluorophenyl)-N-[4-[(7-methoxy-1,5-naphthyridin-4-yl)oxy]phenyl]-4,6-dimethyl-2-oxopyridine-3-carboxamide], the pIC50 in assay [5] was greater than 7.00; in assay [1] it was less than 6.52; in assay [2], 6.52 to 7.00; in assay [3], less than 6.52; in assay [4], greater than 7.00.
`CCOc1c(C)cn(-c2ccc(F)cc2)c(=O)c1C(=O)Nc1ccc(Oc2ccnc3cc(OC)c(OC)nc23)c(F)c1` [Compound 371, N-[4-[(6,7-dimethoxy-1,5-naphthyridin-4-yl)oxy]-3-fluorophenyl]-4-ethoxy-1-(4-fluorophenyl)-5-methyl-2-oxopyridine-3-carboxamide]: the pIC50 in assay [5], in assay [1], in assay [2], in assay [3] and in assay [4] was greater than 7.00 throughout.
With `COc1cc2nccc(Oc3ccc(NC(=O)c4c(OC)c(C)cn(-c5ccc(F)cc5)c4=O)cc3F)c2nc1OC` [Compound 372, N-[4-[(6,7-dimethoxy-1,5-naphthyridin-4-yl)oxy]-3-fluorophenyl]-1-(4-fluorophenyl)-4-methoxy-5-methyl-2-oxopyridine-3-carboxamide], the pIC50 in assay [5], in assay [1], in assay [2], in assay [3] and in assay [4] was greater than 7.00 throughout.
As for `CNC(=O)Cc1cc2c(Oc3ccc(NC(=O)c4cnc(C)c(-c5ccc(F)cc5)c4O)cc3F)ccnc2cc1OC` [Compound 376, N-[3-fluoro-4-[7-methoxy-6-[2-(methylamino)-2-oxoethyl]quinolin-4-yl]oxyphenyl]-5-(4-fluorophenyl)-4-hydroxy-6-methylpyridine-3-carboxamide], the pIC50 in assay [5], in assay [1], in assay [2], in assay [3] and in assay [4] was greater than 7.00 throughout.
As for `COc1ccc2nccc(Oc3ccc(NC(=O)c4cnc(C)n(-c5ccc(F)cc5)c4=O)cc3)c2n1` [Compound 385, 1-(4-fluorophenyl)-N-[4-[(6-methoxy-1,5-naphthyridin-4-yl)oxy]phenyl]-2-methyl-6-oxopyrimidine-5-carboxamide], the pIC50 in assay [5] was greater than 7.00; in assay [1], less than 6.52; in assay [2] it was greater than 7.00; in assay [3], less than 6.52; in assay [4], greater than 7.00.

The values above are taken from patent publication US12371428B2 (Exelixis, Inc., priority 2019, dated 2025).
